From PMC3631420 (Science translational medicine, 2012)

Columns and labels:
[1] = tested on: β-catenin/TCF interaction; details: cited from earlier work
CRC and MM = details: cited from earlier work
[2] = cited from earlier work
GST-β-catenin = molecular target: T1, GST-β-catenin (human, UniProt P35222 1-781); experiment: pull-down
T1 sequence (looked up): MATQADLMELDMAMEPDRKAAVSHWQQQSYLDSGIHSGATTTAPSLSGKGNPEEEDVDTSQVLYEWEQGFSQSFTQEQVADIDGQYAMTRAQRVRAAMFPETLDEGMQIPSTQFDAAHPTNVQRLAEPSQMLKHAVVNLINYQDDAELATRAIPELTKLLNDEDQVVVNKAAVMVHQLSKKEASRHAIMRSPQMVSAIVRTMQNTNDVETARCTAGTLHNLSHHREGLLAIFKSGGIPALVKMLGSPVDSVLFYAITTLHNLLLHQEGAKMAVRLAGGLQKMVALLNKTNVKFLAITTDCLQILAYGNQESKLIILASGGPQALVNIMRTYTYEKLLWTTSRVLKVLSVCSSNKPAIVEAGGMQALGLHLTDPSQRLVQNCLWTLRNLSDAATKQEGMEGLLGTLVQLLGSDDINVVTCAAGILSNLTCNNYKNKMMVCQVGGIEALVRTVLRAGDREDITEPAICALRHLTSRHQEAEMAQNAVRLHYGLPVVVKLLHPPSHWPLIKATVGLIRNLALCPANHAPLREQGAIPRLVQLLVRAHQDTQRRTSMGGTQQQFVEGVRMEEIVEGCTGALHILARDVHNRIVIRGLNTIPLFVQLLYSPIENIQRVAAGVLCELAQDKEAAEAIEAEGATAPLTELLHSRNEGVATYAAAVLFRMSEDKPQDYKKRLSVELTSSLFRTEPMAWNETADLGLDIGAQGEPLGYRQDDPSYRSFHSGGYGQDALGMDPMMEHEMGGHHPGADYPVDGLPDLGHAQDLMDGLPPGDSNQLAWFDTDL

PKF115-584
Wnt-specific transcriptional activity [1]: blocked Wnt-specific transcriptional activity
growth of CRC and MM (CRC and MM): reduced the growth
toxicity in treated mice [2]: induced severe bone marrow hypoplasia, anemia, and generalized wasting

B1: His-BCL9 (residues 243–469) (domain or fragment, human, UniProt O00512 243-469, looked up)
chain: NQDQNSSQNTRLQPTPPIPAPAPKPAAPPRPLDRESPGVENKLIPSVGSPASSTPLPPDGTGPNSTPNNRAVTPVSQGSNSSSADPKAPPPPPVSSGEPPTLGENPDGLSQEQLEHRERSLQTLRDIQRMLFPDEKEFTGAQSGGPQQNPGVLDGPQKKPEGPIQAMMAQSQSLGKGPGPRTDVGAPFGPQGHRDVPFSPDEMVPPSMNSQSGTIGPDHLDHMTPEQ
binding result (GST-β-catenin): binds
